# From the supplement of paper PMC10307832
# Key:
# Assay in all cases: relative viability (nuclei count vs DMSO), 5 days (fraction); higher = more cells survive
# [1] = compound: CN(C)CC1=CC(=CC=C1)N=C(C2=CC=CC=C2)C3=C(NC4=C3C=CC(=C4)C(=O)N(C)C)O + COc1cc2c(Oc3ccc(NC(=O)C4(C(=O)Nc5ccc(F)cc5)CC4)cc3F)ccnc2cc1OCCCN1CCOCC1 [Foretinib] (partner 0.25 µM)
# Outline: (§1)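 One day after seeding in 1536-well plates, lung cancer cell lines were dosed by pin tool. Dosing was either single-drug or a fixed anchor-drug dose plus five library-drug doses (not always all listed) in √10 steps. After 5 days, nuclei were stained in one fix-and-stain step and counted on 4× images, and relative viability is the nuclei count of treated wells over that of vehicle wells, given as the median of duplicate plates.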
# [2] = compound: CN(C)CC1=CC(=CC=C1)N=C(C2=CC=CC=C2)C3=C(NC4=C3C=CC(=C4)C(=O)N(C)C)O + CS(=O)(=O)N1CCN(Cc2cc3nc(-c4cccc5[nH]ncc45)nc(N4CCOCC4)c3s2)CC1 [Pictilisib] (partner 1 µM)
# Outline: as §1
# [3] = compound: CN(C)CC1=CC(=CC=C1)N=C(C2=CC=CC=C2)C3=C(NC4=C3C=CC(=C4)C(=O)N(C)C)O + NC(=O)Nc1cc(-c2cccc(F)c2)sc1C(=O)N[C@H]1CCCNC1 [AZD7762] (partner 0.2 µM)
# Outline: as §1
# [4] = compound: CN(C)CC1=CC(=CC=C1)N=C(C2=CC=CC=C2)C3=C(NC4=C3C=CC(=C4)C(=O)N(C)C)O + O=C(CCCCCCC(=O)Nc1ccccc1)NO [Vorinostat] (partner 1 µM)
# Outline: as §1
Cell Line,relative viability ([1]; first compound 0.08 µM),relative viability ([1]; first compound 0.253 µM),relative viability ([1]; first compound 0.8 µM),relative viability ([1]; first compound 2.53 µM),relative viability ([1]; first compound 8 µM),relative viability ([2]; first compound 0.08 µM),relative viability ([2]; first compound 0.253 µM),relative viability ([2]; first compound 0.8 µM),relative viability ([2]; first compound 2.53 µM),relative viability ([2]; first compound 8 µM),relative viability ([3]; first compound 0.08 µM),relative viability ([3]; first compound 0.253 µM),relative viability ([3]; first compound 0.8 µM),relative viability ([3]; first compound 2.53 µM),relative viability ([3]; first compound 8 µM),relative viability ([4]; first compound 0.08 µM),relative viability ([4]; first compound 0.253 µM),relative viability ([4]; first compound 0.8 µM),relative viability ([4]; first compound 2.53 µM),relative viability ([4]; first compound 8 µM)
NCI-H2347,0.969,1.02,0.809,1.11,1,0.868,0.637,0.697,0.663,0.6,0.898,0.647,0.7,0.719,0.734,0.604,0.736,0.617,0.539,0.565
NCI-H2228,0.946,0.904,0.77,0.88,0.708,0.566,0.411,0.545,0.395,0.349,,,,,,0.653,0.583,0.977,0.65,0.542
NCI-H1299,1.09,1.06,1.14,1.04,1.08,0.509,0.854,0.849,0.6,0.355,,,,,,,,,,
NCI-H1563,0.941,0.967,0.917,0.857,0.948,0.72,0.637,0.613,0.638,0.617,,,,,,,,,,
NCI-H647,1.26,1.1,1.12,1.15,1,0.476,0.475,0.409,0.364,0.413,0.513,0.483,0.463,0.48,0.445,0.477,0.561,0.423,0.421,0.649
NCI-H838,1.13,0.969,1,0.888,0.938,0.529,0.42,0.469,0.397,0.429,0.951,0.928,0.948,0.831,0.903,0.722,0.726,0.716,0.703,0.597
NCI-H727,0.896,0.877,0.804,0.942,0.664,0.515,0.32,0.397,0.47,0.572,,0.546,0.577,0.867,0.583,,0.972,1.35,1.45,1.23
NCI-H661,0.996,0.963,0.957,0.966,0.883,0.4,0.465,0.387,0.498,0.657,,,,,,0.901,0.756,0.769,0.751,0.748
Calu-6,0.923,0.882,0.948,0.906,0.929,0.899,0.872,0.932,0.877,0.852,,,,,,,,,,
UMC-11,1.01,1.07,1.06,1.05,0.997,0.971,0.82,0.771,0.776,0.638,,,,,,0.318,0.399,0.41,0.364,0.34
IA-LM,1.16,1.19,1.3,1.18,1.32,0.361,0.463,0.342,0.389,0.579,,,,,,0.911,0.848,0.903,0.958,1.02
SK-MES-1,0.84,0.975,0.844,0.87,0.901,0.301,0.316,0.368,0.332,0.249,,,,,,1.13,1.08,1.08,1.01,1.03
HCC-44,,,,,,0.645,0.715,0.585,0.532,0.584,1,0.987,1.03,0.946,1.04,1.18,1.09,1.2,1.1,1.29
NCI-H2009,1.17,1.22,1.21,1.23,1.11,0.792,0.766,0.795,0.803,0.541,,,,,,0.76,0.724,0.756,0.727,0.708
NCI-H1650,1.17,1.12,1.08,1.05,0.977,0.591,0.622,0.531,0.625,0.54,,,,,,0.619,0.698,0.444,0.546,0.652
NCI-H1703,0.334,0.489,0.333,0.261,0.316,0.377,,0.26,0.215,0.223,0.128,0.126,0.119,0.133,0.0959,,,,,
NCI-H1792,,,,,,0.303,0.248,0.27,0.207,0.18,0.639,0.658,0.643,0.506,0.71,,,,,
COR-L23,1.08,0.972,1.03,0.88,0.925,0.811,0.709,0.858,0.637,0.656,,,,,,0.539,0.44,0.468,0.407,0.396
SK-LU-1,0.891,0.881,0.857,0.651,0.581,0.575,0.548,0.566,0.538,0.477,,,,,,0.796,0.861,0.735,0.847,0.581
NCI-H2023,0.766,0.731,0.785,0.737,0.602,0.263,0.238,0.222,0.177,0.21,,,,,,0.594,0.685,0.765,0.368,0.589
SW 1573,0.919,0.808,0.759,0.867,0.973,0.474,0.512,0.523,0.385,0.456,,,,,,0.616,1.08,0.958,0.744,0.55
